The source of these data is the Deep4Chem optical property database.

A short description of the data set: solvent given as SMILES.

Take `Fc1nc(F)c(F)c(C#Cc2cc3c(cc2C#Cc2c(F)c(F)nc(F)c2F)OC2(CCCCC2)O3)c1F`: under “in CC#N”, the absorption maximum was found to be 360 nm.

Take `COC(=O)c1ccc(C#Cc2c3c(c4c(-c5ccccc5)c(-c5ccccc5)c(-c5ccccc5)c(-c5ccccc5)c4c2-c2ccc(C(=O)OC)cc2)CC(C(=O)OC)(C(=O)OC)C3)cc1`: where the note is “in C1CCOC1”, the absorption maximum turned out to be 347.38 nm.

`CC(C)[Si](C#Cc1c2cc3ccccc3cc2c(C#C[Si](C(C)C)(C(C)C)C(C)C)c2cc3ccccc3cc12)(C(C)C)C(C)C` came in with an absorption maximum (in ClCCl) of 643 nm.

As to `COc1ccc(-c2nc3c(c4c2-c2ccc(C#N)cc2CC4)-c2ccc(C#N)cc2CC3)cc1`, the absorption maximum runs as follows: (in C1CCOC1) 332 nm; (in CC#N) 329 nm; (in CCCCCC) 336 nm; (in CCOC(C)=O) 324 nm; (in CO) 326 nm; (in CS(C)=O) 331 nm. Also, the absorption maximum was determined as 334 nm (in Cc1ccccc1) and 333 nm (in ClCCl).

`CNc1ncc2nc(C#N)n(Cc3ccccc3)c2n1`: the absorption maximum (in C1COCCO1) stood at 342 nm, the absorption maximum (in CC#N) is on record as 342 nm, the absorption maximum (in CO) was found to be 342 nm and the absorption maximum (in ClCCl) is given as 341 nm.

Take `CN1/C(=C/C=C(/C=C/c2sc3ccccc3[n+]2C)c2cc(F)cc(F)c2)Sc2ccccc21`: the absorption maximum reads like this: (in CCO) 644 nm; (in CO) 641 nm; (in CS(C)=O) 651 nm; (in O) 638 nm.

`F[B-]1(F)n2c(Oc3ccccc3)c(Cl)c3c2C(=C2C(Br)=C(Cl)C(Oc4ccccc4)=[N+]21)Oc1ccccc1-3` displayed an absorption maximum (in ClCCl) of 472 nm.

Where the note is “in Cc1ccccc1”, `Oc1ccccc1-c1nc2c3ccccc3c3ccccc3c2n1-c1ccccc1` came in with an absorption maximum of 335 nm.

As for `COc1cc2c(cc1/C=C(\C#N)c1nc3ccccc3s1)c1ccccc1n2C`, the absorption maximum is, setting by setting: (in C1CCOC1) 433 nm; (in CC#N) 431 nm; (in CCOC(C)=O) 430 nm; (in CN(C)C=O) 439 nm; (in CO) 437 nm; (in CS(C)=O) 443 nm. The absorption maximum came to 431 nm (in Cc1ccccc1), 434 nm (in ClC(Cl)Cl) and 435 nm (in ClCCl).

Turning to `CCCCCCOc1ccc(N(c2ccc(OCCCCCC)cc2)c2ccc(-c3sc(-c4ccc(N(c5ccc(OCCCCCC)cc5)c5ccc(OCCCCCC)cc5)cc4)c4nc(CC)c(CC)nc34)cc2)cc1`, for the setting “in ClCCl”, the absorption maximum was 532 nm.

Turning to `CCN(CC)c1cc(NC(C)=O)c(/N=N/c2cc3c(=O)[nH][nH]c(=O)c3cc2[N+](=O)[O-])cc1OC`, the absorption maximum is 556 nm (in CC(=O)O), 550 nm (in CN(C)C=O) and 553 nm (in CS(C)=O).

On to `CC1=N/C(=C\c2ccc(C#N)c(N(C)C)c2)C(=O)N1C`, for which the absorption maximum is 368 nm (in C1CCOC1), 369 nm (in CC#N) and 362 nm (in CCCCCC).

Molecule `CC(C)(C)c1ccc(N(c2ccccc2)c2ccc3ccc4c(N(c5ccccc5)c5ccc(C(C)(C)C)cc5)ccc5ccc2c3c54)cc1` returned an absorption maximum (in ClCCl) of 428 nm.

Where the note is “in C1CCOC1”, `CN(C)c1ccc(C(=Cc2ccc(C=O)cc2)c2ccc(N(C)C)cc2)cc1` gave an absorption maximum of 407 nm.

As for `Fc1cc(-c2ccc(-c3nc4cc(Br)ccc4[nH]3)cc2)ccc1-c1ccc(-c2nc3cc(Br)ccc3[nH]2)cc1`, for the setting “in CN(C)C=O”, the absorption maximum came to 342 nm.

Consider `CC1=[N+]2C(=C(c3ccc(C#N)cc3)c3ccc(C)n3[B-]2(F)F)C=C1`, for which the absorption maximum runs as follows: (in C1CCCCC1) 517 nm; (in C1CCOC1) 516 nm; (in CC#N) 512 nm; (in CCOC(C)=O) 513 nm; (in CO) 513 nm; (in Cc1ccccc1) 519 nm. Besides, for the setting “in ClC(Cl)Cl”, the absorption maximum is listed as 519 nm.

`CCN(CC)c1ccc2c(c1)oc(=O)c1cc3c(C)nn(-c4ccccc4)c3nc12`: where the note is “in ClCCl”, the absorption maximum stood at 377 nm.

Regarding `F[B-]1(F)n2c(c3ccccc3c2-c2ccccc2)C(c2ccccc2)=C2c3ccccc3C(c3ccccc3)=[N+]21`, for the setting “in ClCCl”, the absorption maximum amounted to 631 nm.

`CCc1c(C)[nH]c(C2=[N+]3C(=Cc4c(C)c(CC)c(C)n4[B-]3(F)F)c3ccccc32)c1C`: the absorption maximum is, setting by setting: (in C1CCOC1) 629 nm; (in CC#N) 620 nm; (in CCCCCC) 629 nm; (in CO) 623 nm; (in Cc1ccccc1) 636 nm; (in ClCCl) 629 nm.

Molecule `COc1ccc(-c2ccc(-c3ccc(OC)cc3)c3nc(-c4ccccc4)c(-c4ccccc4)nc23)cc1` displayed an absorption maximum (in ClC(Cl)Cl) of 366 nm.

For the molecule `CC(C)(C)c1ccc(Oc2cc3c4c(cc(Oc5ccc(C(C)(C)C)cc5)c5c6c(Oc7ccc(C(C)(C)C)cc7)cc7c8c(cc(Oc9ccc(C(C)(C)C)cc9)c(c2c45)c86)C(=O)OC7=O)C(=O)OC3=O)cc1`, under “in ClC(Cl)Cl”, the absorption maximum is reported as 581 nm.

For the setting “in C1CCOC1”, `COC(=O)c1ccc(/C=C/C(F)(F)F)c(N)c1` had an absorption maximum of 372 nm.

Regarding `c1ccc(N2N=C(c3ccc4ccc5cccc6ccc3c4c56)CC2c2ccc3ccc4cccc5ccc2c3c45)cc1` (centres undefined), under “in ClCCl”, the absorption maximum came to 422 nm.

`COC(=O)c1cc2c(cc3ccc4cccc5ccc2c3c45)[nH]1`: under “in C1CCOC1”, the absorption maximum is listed as 400 nm.

With `Cc1cc(C)c(C2=[N+]3C(=Cc4c(C)cc(C)n4[B-]3(F)F)c3ccccc32)[nH]1`, the absorption maximum is, setting by setting: (in C1CCOC1) 609 nm; (in CC#N) 601 nm; (in CCCCCC) 610 nm; (in CO) 603 nm; (in Cc1ccccc1) 616 nm; (in ClCCl) 609 nm.

For the setting “in ClCCl”, `N#Cc1ccc(-c2cn3cc(C#N)c[n+]3[n-]2)cc1` yielded an absorption maximum of 360 nm.

The molecule `Cc1cc2ccccc2c2c1c1ccccc1n2C` returned an absorption maximum (in ClCCl) of 300 nm.

As for `c1ccc(-n2nc(-c3ccc(N4c5ccccc5Oc5ccccc54)cc3)nc2-c2ccccn2)cc1`, the absorption maximum (in ClCCl) is on record as 341 nm.

Consider `COC(=O)C(CCCCNC(=O)CCNc1cccc2ccccc12)NC(C)=O` (centres undefined), for which, for the setting “in CCO”, the absorption maximum amounted to 330 nm.

`CC(C)(C)c1ccc(-c2ccc(-c3ccc(N(c4ccccc4)c4ccccc4)cc3)c3nsnc23)cc1`: the absorption maximum (in ClCCl) worked out at 436 nm.

For the molecule `COC(=O)[C@@H]1C(=O)Oc2ccccc2[C@H]1c1c[nH]c2ccccc12`, the absorption maximum (in CS(C)=O) came to 284 nm.

For the setting “in Cc1ccccc1”, `c1cc2c3c(c1)-c1ccc4c5c(ccc(c15)B3c1ccc3c5c(ccc-2c15)CC3)CC4` yielded an absorption maximum of 495 nm.

`Cc1ccsc1-c1cc2c3cc(-c4sccc4C)c4nc(C(F)(F)C(F)(F)C(F)(F)F)nc5c(-c6sccc6C)cc(c6cc(-c7sccc7C)c7nc(C(F)(F)C(F)(F)C(F)(F)F)nc1c7c26)c3c45` displayed an absorption maximum (in C1CCOC1) of 532 nm.

In turn, `COc1ccc2c(-c3nc(-c4ccccc4Cl)no3)cc(=O)oc2c1` had an absorption maximum (in CCO) of 354 nm and an absorption maximum (in ClC(Cl)Cl) of 355 nm.

Where the note is “in CCO”, `CCOC(=O)c1cc(C(=O)OCC)c2cc(N)ccc2n1` returned an absorption maximum of 421 nm.

As for `Nc1ccc2c(-c3ccc(Br)cc3)c3ccc(=[NH2+])cc-3oc2c1`, the absorption maximum (in CCO) was 514 nm.

The molecule `CC[n+]1c(-c2ccccc2)c2cc(NC(N)=O)ccc2c2ccc(N)cc21` returned an absorption maximum (in O) of 463 nm.
